Reference: ChEMBL document CHEMBL2440068, “Synthesis and evaluation of N-alkyl-S-[3-(piperidin-1-yl)propyl]isothioureas: high affinity and human/rat species-selective histamine H(3) receptor antagonists” (Bioorg Med Chem Lett, 2013)
Activity calls are given as the source filed them. No cut-off for these calls is given here.

Key:
Histamine H3 receptor = Histamine H3 receptor (Homo sapiens, UniProt Q9Y5N1); test: Antagonist activity at human histamine H3 receptor expressed in CHO cells assessed as inhibition of forskolin/R-alpha-methylhistamine-induced cAMP accumulation after 1.5 hrs by TR-FRET immunoassay; assay type: functional, cell-based; settings: for Kb: read-out: pA2 (converted)
Histamine H3 receptor, sequence (Q9Y5N1 whole entry): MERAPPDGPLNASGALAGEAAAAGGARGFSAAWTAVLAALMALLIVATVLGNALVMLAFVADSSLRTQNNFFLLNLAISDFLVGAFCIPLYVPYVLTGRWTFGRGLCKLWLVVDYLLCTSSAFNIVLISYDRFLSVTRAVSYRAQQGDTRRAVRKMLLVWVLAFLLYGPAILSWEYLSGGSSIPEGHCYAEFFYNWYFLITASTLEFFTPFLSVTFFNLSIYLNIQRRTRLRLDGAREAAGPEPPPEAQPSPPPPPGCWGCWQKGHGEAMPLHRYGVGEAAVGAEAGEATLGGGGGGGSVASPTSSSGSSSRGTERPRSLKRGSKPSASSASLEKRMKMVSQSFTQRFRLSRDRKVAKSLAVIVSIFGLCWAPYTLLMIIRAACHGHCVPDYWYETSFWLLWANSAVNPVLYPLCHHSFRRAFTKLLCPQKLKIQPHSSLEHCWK

Rattus norvegicus = test: Increase of histamine release in Wistar rat hypothalamus at 10 uM administered through dialysis membrane by HPLC-fluorometric based microdialysis relative to control; assay type: functional
[1] = target: Histamine H4 receptor (Homo sapiens) (UniProt Q9H3N8); test: Antagonist activity at human histamine H4 receptor expressed in CHO cells assessed inhibition of forskolin/histamine-induced cAMP accumulation at 1 uM after 1.5 hrs by TR-FRET immunoassay; assay type: functional, cell-based
[2] = target: Histamine H4 receptor (Homo sapiens) (UniProt Q9H3N8); test: Agonist activity at human histamine H4 receptor expressed in CHO cells assessed increase of forskolin-induced cAMP accumulation at 1 uM after 1.5 hrs by TR-FRET immunoassay; assay type: functional, cell-based

SMILES	IC50 (Histamine H3 receptor) [µM]	Kb (Histamine H3 receptor) [µM]	inhibition [1]	Activity [2]	Activity (Rattus norvegicus) [%]
O=C(CCCCc1ccc(Cl)cc1)NCCCN1CCCCC1	0.316	–	–	–	–
O=C(CCCN1CCCCC1)NCCCCc1ccc(C(F)(F)F)cc1	0.126	–	–	–	–
Cl.N=C(NCCCCCc1ccccc1)SCCCN1CCCCC1	0.0316	0.01	–	–	90.5
O=C(CCCN1CCCCC1)NCCCCc1ccc(Cl)cc1	0.126	–	–	–	–
N=C(NCCCCc1ccc(C(F)(F)F)cc1)SCCCN1CCCCC1	0.0158	0.0126	–	–	–
N#Cc1ccc(CCCCNC(=N)SCCCN2CCCCC2)cc1	0.002	0.002	inactive	inactive	–
Cl.N=C(NCc1ccc(Cl)cc1)SCCCN1CCCCC1	0.0794	0.0398	–	–	134.4
N=C(NCc1ccc(Cl)cc1)SCCCN1CCNCC1	6.31	–	–	–	–
N=C(NCc1ccc(Cl)cc1)SCCCc1c[nH]cn1 [CLOBENPROPIT]	–	–	–	–	145.6
N=C(NCCCCN1CCCCC1)SCCCN1CCCCC1	0.00631	0.002	inactive	inactive	–
CN1CCN(CCCSC(=N)NCc2ccc(Cl)cc2)CC1	1.26	–	–	–	–

More lines, main results first:

IC50 (Histamine H3 receptor) [µM]	Kb (Histamine H3 receptor) [µM]	inhibition [1]	Activity [2]	SMILES	Activity (Rattus norvegicus) [%]
0.0316	–	–	–	N=C(NCCc1ccc(Cl)cc1)SCCCN1CCCC1	–
0.316	–	–	–	N=C(NCCc1ccc(Cl)cc1)SCCCN1CCOCC1	–
0.02	–	–	–	N=C(NCc1ccc(Cl)cc1)SCCCN1CCCC1	–
0.00631	0.002	inactive	inactive	Cl.N=C(NCCCc1ccc(Cl)cc1)SCCCN1CCCCC1	102.2
0.00631	0.000251	inactive	inactive	Cl.N=C(NCCCCc1ccc(Cl)cc1)SCCCN1CCCCC1	101.2
1.58	–	–	–	N=C(NCc1ccc(Cl)cc1)SCCCN1CCOCC1	–
0.00794	0.0398	inactive	inactive	Cl.N=C(NCCc1ccc(Cl)cc1)SCCCN1CCCCC1	145.8
